Laboratory results: ChEMBL document CHEMBL4359912, “Novel N-Substituted oseltamivir derivatives as potent influenza neuraminidase inhibitors: Design, synthesis, biological evaluation, ADME prediction and molecular docking studies” (Eur J Med Chem, 2019)

Biological target: Neuraminidase (Influenza A virus (A/Memphis/1/1971(H3N2)), UniProt P03471)
Experiment: Inhibition of influenza A virus H3N2 clinical isolate neuraminidase using NA-Fluor MUNANA as substrate preincubated for 20 to 30 mins followed by substrate addition and measured for 60 mins by fluorescence assay

Sequence of Neuraminidase (Influenza A virus (A/Memphis/1/1971(H3N2)), UniProt P03471) (P03471 whole entry): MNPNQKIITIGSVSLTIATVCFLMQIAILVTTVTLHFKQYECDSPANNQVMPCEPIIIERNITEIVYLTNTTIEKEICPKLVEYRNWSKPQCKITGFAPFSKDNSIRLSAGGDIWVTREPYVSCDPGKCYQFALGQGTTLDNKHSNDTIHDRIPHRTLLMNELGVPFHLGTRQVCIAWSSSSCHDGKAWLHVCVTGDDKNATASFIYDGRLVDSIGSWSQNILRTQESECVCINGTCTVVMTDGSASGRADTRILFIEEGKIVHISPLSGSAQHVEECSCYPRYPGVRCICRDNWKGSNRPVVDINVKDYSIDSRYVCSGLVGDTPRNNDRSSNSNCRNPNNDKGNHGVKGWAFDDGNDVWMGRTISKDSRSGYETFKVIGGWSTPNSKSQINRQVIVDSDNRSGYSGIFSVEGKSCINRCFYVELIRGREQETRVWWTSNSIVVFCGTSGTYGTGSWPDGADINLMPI

| Structure (SMILES) | IC50 |
| --- | --- |
| CCC(CC)O[C@@H]1C=C(C(=O)O)C[C@H](NCc2ccc(-c3c(C)noc3C)o2)[C@H]1NC(C)=O | 1.63 nM |
| CCC(CC)O[C@@H]1C=C(C(=O)O)C[C@H](NCc2noc(-c3ccco3)n2)[C@H]1NC(C)=O | 1.92 nM |
